Measured values reported in patent US9045524B2, “Selective caspase inhibitors and uses thereof” (NOVAGENESIS FOUNDATION, priority 2009, dated 2015).
pIC50: −log10 of the molar value. Like-named read-outs stand apart in the source and are kept apart here.

How the values were obtained:
Caspase-9 = Caspase-9 (Homo sapiens (Human), UniProt P55211); test: Caspase-9 Inhibitor Drug Screening Kit, fluorometric (AFC liberation); format: biochemical; conditions: 30-minute incubation at 37° C.; approximations of the average values; read-out: Caspase enzymatic activity, IC50 (uM) Caspase 9
Caspase-9, sequence (P55211 whole entry): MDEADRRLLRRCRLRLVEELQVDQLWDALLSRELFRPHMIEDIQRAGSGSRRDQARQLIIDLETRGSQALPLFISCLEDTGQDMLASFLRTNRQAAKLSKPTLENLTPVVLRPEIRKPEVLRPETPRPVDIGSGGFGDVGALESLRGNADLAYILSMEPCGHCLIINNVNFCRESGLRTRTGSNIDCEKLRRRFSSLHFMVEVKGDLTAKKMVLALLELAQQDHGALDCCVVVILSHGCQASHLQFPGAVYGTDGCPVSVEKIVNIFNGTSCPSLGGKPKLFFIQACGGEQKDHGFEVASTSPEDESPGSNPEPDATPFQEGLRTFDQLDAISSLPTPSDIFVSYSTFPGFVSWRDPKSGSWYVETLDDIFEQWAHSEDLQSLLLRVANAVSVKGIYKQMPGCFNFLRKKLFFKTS
Experimental: (§1) The level of inhibition of caspase-1, -3, -5, -7, -9 activity was determined by comparison of the relative fluorescence intensity in samples with or without the compound.

[1] = system: proteolytic cleavage of PARP (poly ADP-ribose polymerase) in Hela cells; test: Inhibition of staurosporine-induced PARP cleavage in live Hela cells; format: cell-based; conditions: Homo sapiens, HeLa
Experimental: To test the efficacy of caspase-3 inhibitors at the cellular level, the ability of selected compounds to inhibit the proteolytic cleavage of PARP (poly ADP-ribose polymerase) was evaluated in live Hela cells.
Briefly, in this assay Hela cells are seeded in 96 well plates and incubated for 4 hours with staurosporine, a well characterized inducer of apoptosis, alone or together with different concentrations of compound (50, 25, 10 and 3 uM). After formaldehyde-based fixation, the cells are stained with a fluorescein-labeled anti-cleaved PARP antibody (Cell signaling, Cat#: 9547) and counterstained with Hoechst33342 (Invitrogen, Cat#: H3570) to mark all nuclei. Fluorescence images are taken on a Cellomics™ microscope system (Thermo Scientific, Pittsburgh, USA) with the Hoechst stain in the blue channel and the cleaved PARP antibody stain in the green channel. The percentage of cleaved PARP positive cells is determined by calculating the ratio between nuclei with a cleaved PARP antibody staining above a certain threshold and all (Hoechst positive) nuclei. The efficacy of caspase-3 inhibition is determined by calculating the ratio between cleaved PARP positive cells after staurosporine incubation together with compounds and staurosporine incubation without compounds.

Caspase-3 = Caspase-3 (Homo sapiens (Human), UniProt P42574); test: Caspase-3 Inhibitor Drug Screening Kit, fluorometric (AFC liberation); format: biochemical; conditions: for IC50: 30-minute incubation at 37° C., approximations of the average values, read-out: Caspase enzymatic activity, IC50 (uM) Caspase 3
Caspase-3, sequence (P42574 29-277): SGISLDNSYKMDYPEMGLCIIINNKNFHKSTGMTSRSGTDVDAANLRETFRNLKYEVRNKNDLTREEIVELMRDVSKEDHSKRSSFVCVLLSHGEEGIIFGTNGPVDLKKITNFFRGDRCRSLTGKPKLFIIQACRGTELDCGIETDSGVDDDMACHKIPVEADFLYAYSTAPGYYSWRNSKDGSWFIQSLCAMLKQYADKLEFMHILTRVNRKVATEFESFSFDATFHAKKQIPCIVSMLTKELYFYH
Experimental: as §1

EAE in C57BL/6 mice = test: Chronic EAE mouse model (MOG35-55 immunization), daily clinical score and body weight; format: in vivo; design: key to Delay in onset of the disease / Reduction in severity of the disease / Reduction in body weight loss: +++: high level improvement; ++: moderate improvement; +: small improvement; −: no improvement; conditions: for Delay in onset of the disease / Reduction in body weight loss / Reduction in severity of the disease: average overall effects on the EAE model, i.p.
Description: The aim of this study was to verify the effectiveness of compounds in a chronic mouse animal model of EAE. EAE is a good proof-of-principle model of neurodegeneration since it encompasses degeneration or destruction of practically all the cells in the central nervous system, includes most major immunomodulatory components, and is able to maintain normal innate regenerative functions in the animal. This is a standard model (Antel J P et al., J Neurosci Res. 1997, 50: 345-353) used mainly to mimic the course evolution of Multiple Sclerosis (MS) in humans, and is commonly used for studying disease mechanisms and testing potential therapies. EAE is induced by immunization with myelin proteins, leading to development of myelin-specific T cells. These autoreactive T cells traffic into CNS parenchyma where they initiate an inflammatory cascade through recruitment of other cells such as monocytes and neutrophils. Accumulation of immune cells within CNS leads to myelin damage, axonal loss and clinical deficit in affected animals. EAE can be induced in a variety of species and strains of animals [mice, Rat, marmoset monkey, rhesus macaques] using various CNS antigens [Myelin Oligodendrocyte Glycoprotein (MOG), proteolipid protein (PLP) and myelin basic protein (MBP)]. Seven to 8 week old female C57BL/6 mice were purchased from Charles River Laboratories, and housed at MISPRO™ animal facility for one week before experimentation for adaptation to the new environment. All proper animal experimentation and ethics approvals were obtained prior to the start of any experiments. Mice were immunized subcutaneously with 100 μg of MOG35-55 (Sheldon Biotechnology Centre, McGill University) in CFA containing 5 mg/ml of desiccated (killed and dried) Mycobacterium tuberculosis H37Ra (Difco, Inc), at two sites on the back. The mice were then injected with 200 ng of pertussis toxin (List Biological Laboratories, Inc) in PBS intraperitoneally on days 0 and 2 using 25 gauge needles and scored daily using an EAE clinical scale as detailed below (Touil T et al., J Neurol Sci. 2008, 271:191-202; Antel J P et al., 1997, supra; Owens T et al., Curr Pharm Des. 2005, 1:1031-1037).
EAE was clinically assessed throughout the experiments by daily scoring using a scale from 0 to 5 as follows: partial limp tail, 0.5; full limp tail, 1; limp tail and waddling gait, 1.5; paralysis of one hind limb, 2; paralysis of one hind limb and partial paralysis of other hind limb, 2.5; paralysis of both hind limbs, 3; ascending paralysis, 3.5; paralysis of trunk, 4; moribund, 4.5; death, 5. In all the EAE models a body weight loss is always associated with the clinical signs. This body weight loss is associated with the loss of the function and the paralysis of the muscle (atrophy inducing loss of weight). For animals showing a clinical sign of 2 or more, the food and the water were presented inside the cage to facilitate eating and drinking.
At the onset of clinical signs of EAE, the mice were treated with 200 μl of Compound 51, 53, 57, 59, 101, 104, 105, 111 or 123 dissolved in 2.5% Dimethyl sulfoxide (DMSO) in PBS, while placebo groups were treated with 2.5% Dimethyl sulfoxide (DMSO) in PBS only, by intraperitoneal injection at different time of the clinical evolution.

Glo3/7 = Glo3/7 assay; format: biochemical
Caspase-5 = Caspase-5 (Homo sapiens (Human), UniProt P51878); test: Caspase-5 Inhibitor Drug Screening Kit, fluorometric (AFC liberation); format: biochemical; conditions: 30-minute incubation at 37° C.; approximations of the average values; read-out: Caspase enzymatic activity, IC50 (uM) Caspase 5
Caspase-5, sequence (P51878 137-434): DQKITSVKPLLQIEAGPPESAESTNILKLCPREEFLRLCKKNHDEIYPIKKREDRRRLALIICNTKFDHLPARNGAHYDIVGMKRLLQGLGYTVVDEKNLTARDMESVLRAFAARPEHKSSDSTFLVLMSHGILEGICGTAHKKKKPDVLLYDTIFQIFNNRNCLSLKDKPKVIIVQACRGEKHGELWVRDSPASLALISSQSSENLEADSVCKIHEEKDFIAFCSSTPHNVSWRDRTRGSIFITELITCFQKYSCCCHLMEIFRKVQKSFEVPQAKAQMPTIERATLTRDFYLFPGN
Experimental: as §1

Caspase-1 = Caspase-1 (Homo sapiens (Human), UniProt P29466); test: Caspase-1 Inhibitor Drug Screening Kit, fluorometric (AFC liberation); format: biochemical; conditions: for IC50: 30-minute incubation at 37° C., approximations of the average values, read-out: Caspase enzymatic activity, IC50 (uM) Caspase 1
Caspase-1, sequence (P29466 120-404): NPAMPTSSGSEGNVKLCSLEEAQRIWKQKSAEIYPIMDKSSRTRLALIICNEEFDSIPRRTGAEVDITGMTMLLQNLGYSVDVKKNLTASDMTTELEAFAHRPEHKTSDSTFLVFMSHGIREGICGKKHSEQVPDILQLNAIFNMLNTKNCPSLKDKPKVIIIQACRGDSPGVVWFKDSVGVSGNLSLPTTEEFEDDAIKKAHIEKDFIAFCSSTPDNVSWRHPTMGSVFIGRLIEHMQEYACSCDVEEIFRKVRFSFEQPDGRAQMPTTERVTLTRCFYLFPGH
Experimental: as §1

Caspase-7 = Caspase-7 (Homo sapiens (Human), UniProt P55210); test: Caspase-7 Inhibitor Drug Screening Kit, fluorometric (AFC liberation); format: biochemical; conditions: for IC50: 30-minute incubation at 37° C., approximations of the average values, read-out: Caspase enzymatic activity, IC50 (uM) Caspase 7
Caspase-7, sequence (P55210 whole entry): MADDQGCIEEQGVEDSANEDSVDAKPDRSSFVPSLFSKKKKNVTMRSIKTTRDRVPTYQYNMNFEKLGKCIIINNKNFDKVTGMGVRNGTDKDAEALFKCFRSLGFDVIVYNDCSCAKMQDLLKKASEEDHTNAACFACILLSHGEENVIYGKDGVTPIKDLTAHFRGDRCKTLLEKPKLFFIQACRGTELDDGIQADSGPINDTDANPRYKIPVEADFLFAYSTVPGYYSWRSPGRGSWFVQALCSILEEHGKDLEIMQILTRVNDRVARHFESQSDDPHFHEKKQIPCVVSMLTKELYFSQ
Experimental: as §1

[2] = 4 h, read-out: % inhibition of PARP cleavage at 50 uM compound, Hela cells, staurosporine 4 hours, 50 uM compound
[3] = FIG. 1, i.p. from day 10 to 16 post immunization, versus placebo
[4] = Hela cells, 50 uM, read-out: % of inhibition with compound relative to DEVDFMK
[5] = FIG. 2, i.p. from day 10 to 16 post immunization, versus placebo

Structure (SMILES) | IC50 (Caspase-9) | inhibition at 50 µM [1, 2] | IC50 (Caspase-3) | Delay in onset of the disease (EAE in C57BL/6 mice) | Reduction in body weight loss (EAE in C57BL/6 mice) | Reduction in severity of the disease (EAE in C57BL/6 mice) | IC50 (Glo3/7) | IC50 (Caspase-5) | IC50 (Caspase-1) | IC50 (Caspase-7) | inhibition at 50 µM [1, 4] | also measured
CC(C)[C@H](NC(=O)[C@@H](NC(=O)[C@H](CC(=O)O)NC(=O)OCc1ccccc1)C1Cc2ccccc2C1)C(=O)N[C@H](/C=C/S(C)(=O)=O)CC(=O)O [Compound 57, Z-Asp-Indanylglycine-Val-Aspmethyl vinyl sulfone] | > 3.33 µM | > 50% | 0.03 µM | + | + | + | 0.1 µM | > 3.33 µM | 0.9 µM | 0.2 µM |  | pIC50 (Caspase-3; read-out: IC50 caspase-3): 7.05 to 7.52; Cumulative clinical score (EAE in C57BL/6 mice; [3]): reduced the cumulative score; Disease onset (EAE in C57BL/6 mice; [3]): without delaying the onset of the disease; Loss of body weight (EAE in C57BL/6 mice; [3]): did not show and difference compared to placebo; clinical severity of the disease (EAE in C57BL/6 mice; [3]): reduced also the clinical severity of the disease; maximal clinical score (EAE in C57BL/6 mice; [3]): without any significant effect on the maximal score; fold less efficiency against caspase-1 than against group III caspases (Caspase-1): about 29 fold; pIC50 (Caspase-7; read-out: IC50 caspase-7): 6.52 to 6.74
COC(=O)C[C@@H](/C=C/S(C)(=O)=O)NC(=O)[C@@H](NC(=O)[C@@H](NC(=O)[C@H](CC(=O)OC)NC(=O)OCc1ccccc1)c1ccccc1)C(C)C [Compound 101, Z-Asp(β-methyl)-phenylglycine-Val-Asp(β-methyl)methyl vinyl sulfone] | > 3.33 µM | 40% | > 3.33 µM | + | ++ | + | 20 µM | > 3.33 µM | > 3.33 µM | > 3.33 µM | 45% | Disease onset (EAE in C57BL/6 mice; [5]): delayed; Loss of body weight (EAE in C57BL/6 mice; [5]): less than placebo; severity of the disease (EAE in C57BL/6 mice; [5]): reduced significantly at the early stage of the disease; Loss of body weight (EAE in C57BL/6 mice; FIG. 3, i.p. from day 14 to 19 post immunization, versus placebo): less than in the placebo group
CC(C)[C@H](NC(=O)[C@H](Cc1ccc2ccccc2n1)NC(=O)[C@H](CC(=O)OC(C)(C)C)NC(=O)OCc1ccccc1)C(=O)N[C@H](/C=C/S(=O)(=O)N1CCOCC1)CC(=O)OC(C)(C)C [Compound 66, Z-Asp(β-tert-Butyl)-Ala(2′-quinolyl)-Val-Asp(β-tert-Butyl)morpholine Vinyl Sulfone] | > 3.33 µM |  | 0.2 µM |  |  |  | 1.4 µM | > 3.33 µM | > 3.33 µM | > 3.33 µM | 35% | 
COC(=O)C[C@@H](/C=C/S(C)(=O)=O)NC(=O)[C@@H](NC(=O)[C@@H](NC(=O)[C@H](CC(=O)OC)NC(=O)OCc1ccccc1)C1Cc2ccccc2C1)C(C)C [Compound 51, Z-Asp(β-methyl)-Indanylglycine-Val-Asp(β-methyl)methyl vinyl sulfone] | > 3 µM | > 50% | 1 µM | ++ | +++ | ++ | > 50 µM | > 3 µM | > 3 µM | > 3 µM |  | Cumulative clinical score (EAE in C57BL/6 mice; [3]): significantly lower compared to placebo; Disease onset (EAE in C57BL/6 mice; [3]): delayed; Loss of body weight (EAE in C57BL/6 mice; [3]): less than the placebo; clinical severity of the disease (EAE in C57BL/6 mice; [3]): reduced significantly; maximal clinical score (EAE in C57BL/6 mice; [3]): significantly lower compared to placebo
CC(C)[C@H](NC(=O)[C@H](CCC(=O)O)NC(=O)[C@H](Cc1ccc(O)cc1)NC(=O)OCc1ccccc1)C(=O)N[C@H](/C=C/S(C)(=O)=O)CC(=O)O [Compound 82] | 1.6 µM | 15% | 0.3 µM |  |  |  | 3.7 µM | > 3 µM | 0.5 µM | > 5 µM | 15% | 
CS(=O)(=O)/C=C/[C@@H](N)CC(=O)O.Cc1ccc(S(=O)(=O)O)cc1 [Compound 93, AspVSmethyl] | > 3.33 µM | 15% | > 10 µM |  |  |  | > 50 µM | > 3.33 µM | > 3.33 µM | > 3.33 µM | 25% | activity against caspase-3 (Caspase-3): devoid of any activity
CC(C)(C)OC(=O)C[C@H](N)/C=C/S(C)(=O)=O.Cc1ccc(S(=O)(=O)O)cc1 [Compound 33, Asp(β-tert-butyl)methyl Vinyl Sulfone Tosyl Salt] | > 3.33 µM | 30% | > 10 µM |  |  |  | > 50 µM | > 3.33 µM | > 3.33 µM | > 3.33 µM | 50% | activity against caspase-3 (Caspase-3): devoid of any activity
